Source: patent publication US20090191636A1, “Method of Producing Transgenic Graminaceous Cells and Plants” (priority 2006, published 2009)

Experiments:
[1] = system: wheat embryos derived from mature dried grain of the cultivar Bobwhite; test: Effect of D-amino acids on regeneration of wheat from embryos of mature dried grain (Bobwhite); format: cell-based, Triticum aestivum; settings: for proportion (%) of explants regenerating after 3 weeks, Average / proportion (%) of explants regenerating after 3 weeks, Experiment number 1 / proportion (%) of explants regenerating after 3 weeks, Experiment number 2 / proportion (%) of explants regenerating after 3 weeks, Experiment number 3: n = 20
Experimental: (§1) A range of concentrations of the D-amino acids D-serine and D-alanine were tested for effects on wheat regeneration and germination from embryos derived from mature dried grain of the cultivar Bobwhite.

[2] = system: wheat mature dried grain of the cultivar Bobwhite; test: Effect of D-amino acids on germination of wheat mature dried grain (Bobwhite); format: in vivo, Triticum aestivum; settings: n = 15
Experimental: as §1

[3] = system: wheat embryos derived from mature dried grain of the cultivar Ventura; test: Effect of D-amino acids on regeneration of wheat from embryos of mature dried grain (Ventura); format: cell-based; settings: n = 20
[4] = system: wheat mature dried grain of the cultivar Ventura; test: Effect of D-amino acids on germination of wheat mature dried grain (Ventura); format: in vivo; settings: n = 15
Experimental: [Worded in the source for another variant; this variant is reported under the same test.] as §1

C[C@@H](N)C(=O)O [D-alanine]
proportion (%) of explants regenerating after 3 weeks, Average ([1]; 0.5 mM): 20% | proportion (%) of explants regenerating after 3 weeks, Experiment number 1 ([1]; 0.5 mM): 30% | proportion (%) of explants regenerating after 3 weeks, Experiment number 2 ([1]; 0.5 mM): 30% | proportion (%) of explants regenerating after 3 weeks, Experiment number 3 ([1]; 0.5 mM): 0% | proportion (%) of explants regenerating after 3 weeks, Average ([1]; 1 mM): 20% | proportion (%) of explants regenerating after 3 weeks, Experiment number 1 ([1]; 1 mM): 35% | proportion (%) of explants regenerating after 3 weeks, Experiment number 2 ([1]; 1 mM): 21% | proportion (%) of explants regenerating after 3 weeks, Experiment number 3 ([1]; 1 mM): 5% | proportion (%) of explants regenerating after 3 weeks, Average ([1]; 3 mM): 15% | proportion (%) of explants regenerating after 3 weeks, Experiment number 1 ([1]; 3 mM): 20% | proportion (%) of explants regenerating after 3 weeks, Experiment number 2 ([1]; 3 mM): 25% | proportion (%) of explants regenerating after 3 weeks, Experiment number 3 ([1]; 3 mM): 0% | proportion (%) of explants regenerating after 3 weeks, Average ([1]; 5 mM): 3% | proportion (%) of explants regenerating after 3 weeks, Experiment number 1 ([1]; 5 mM): 5% | proportion (%) of explants regenerating after 3 weeks, Experiment number 2 ([1]; 5 mM): 5% | proportion (%) of explants regenerating after 3 weeks, Experiment number 3 ([1]; 5 mM): 0% | proportion (%) of explants regenerating after 3 weeks, Average ([1]; 10 mM): 0% | proportion (%) of explants regenerating after 3 weeks, Experiment number 1 ([1]; 10 mM): 0% | proportion (%) of explants regenerating after 3 weeks, Experiment number 2 ([1]; 10 mM): 0% | proportion (%) of explants regenerating after 3 weeks, Experiment number 3 ([1]; 10 mM): 0% | levels that reduced the regeneration and germination of wheat plants ([1]; regeneration and germination (Tables 4 and 5)): > 5 mM | proportion (%) of explants germinated after 1 week, Average ([2]; 0.5 mM): 77% | proportion (%) of explants germinated after 1 week, Experiment Number 1 ([2]; 0.5 mM): 55% | proportion (%) of explants germinated after 1 week, Experiment Number 2 ([2]; 0.5 mM): 75% | proportion (%) of explants germinated after 1 week, Experiment Number 3 ([2]; 0.5 mM): 100% | proportion (%) of explants germinated after 1 week, Average ([2]; 1 mM): 77% | proportion (%) of explants germinated after 1 week, Experiment Number 1 ([2]; 1 mM): 70% | proportion (%) of explants germinated after 1 week, Experiment Number 2 ([2]; 1 mM): 80% | proportion (%) of explants germinated after 1 week, Experiment Number 3 ([2]; 1 mM): 80% | proportion (%) of explants germinated after 1 week, Average ([2]; 3 mM): 73% | proportion (%) of explants germinated after 1 week, Experiment Number 1 ([2]; 3 mM): 70% | proportion (%) of explants germinated after 1 week, Experiment Number 2 ([2]; 3 mM): 70% | proportion (%) of explants germinated after 1 week, Experiment Number 3 ([2]; 3 mM): 80% | proportion (%) of explants germinated after 1 week, Average ([2]; 5 mM): 62% | proportion (%) of explants germinated after 1 week, Experiment Number 1 ([2]; 5 mM): 50% | proportion (%) of explants germinated after 1 week, Experiment Number 2 ([2]; 5 mM): 85% | proportion (%) of explants germinated after 1 week, Experiment Number 3 ([2]; 5 mM): 50% | proportion (%) of explants germinated after 1 week, Average ([2]; 10 mM): 28% | proportion (%) of explants germinated after 1 week, Experiment Number 1 ([2]; 10 mM): 10% | proportion (%) of explants germinated after 1 week, Experiment Number 2 ([2]; 10 mM): 35% | proportion (%) of explants germinated after 1 week, Experiment Number 3 ([2]; 10 mM): 40% | proportion (%) of explants regenerating after 3 weeks, Average ([3]; 0.5 mM): 8% | proportion (%) of explants regenerating after 3 weeks, Experiment number 1 ([3]; 0.5 mM): 10% | proportion (%) of explants regenerating after 3 weeks, Experiment number 2 ([3]; 0.5 mM): 10% | proportion (%) of explants regenerating after 3 weeks, Experiment number 3 ([3]; 0.5 mM): 5% | proportion (%) of explants regenerating after 3 weeks, Average ([3]; 1 mM): 5% | proportion (%) of explants regenerating after 3 weeks, Experiment number 1 ([3]; 1 mM): 0% | proportion (%) of explants regenerating after 3 weeks, Experiment number 2 ([3]; 1 mM): 10% | proportion (%) of explants regenerating after 3 weeks, Experiment number 3 ([3]; 1 mM): 5% | proportion (%) of explants regenerating after 3 weeks, Average ([3]; 3 mM): 7% | proportion (%) of explants regenerating after 3 weeks, Experiment number 1 ([3]; 3 mM): 10% | proportion (%) of explants regenerating after 3 weeks, Experiment number 2 ([3]; 3 mM): 10% | proportion (%) of explants regenerating after 3 weeks, Experiment number 3 ([3]; 3 mM): 0% | proportion (%) of explants regenerating after 3 weeks, Average ([3]; 5 mM): 3% | proportion (%) of explants regenerating after 3 weeks, Experiment number 1 ([3]; 5 mM): 5% | proportion (%) of explants regenerating after 3 weeks, Experiment number 2 ([3]; 5 mM): 5% | proportion (%) of explants regenerating after 3 weeks, Experiment number 3 ([3]; 5 mM): 0% | proportion (%) of explants regenerating after 3 weeks, Average ([3]; 10 mM): 0% | proportion (%) of explants regenerating after 3 weeks, Experiment number 1 ([3]; 10 mM): 0% | proportion (%) of explants regenerating after 3 weeks, Experiment number 2 ([3]; 10 mM): 0% | proportion (%) of explants regenerating after 3 weeks, Experiment number 3 ([3]; 10 mM): 0% | proportion (%) of explants regenerating after 3 weeks, Average ([3]; 20 mM): 0% | proportion (%) of explants regenerating after 3 weeks, Experiment number 1 ([3]; 20 mM): 0% | proportion (%) of explants regenerating after 3 weeks, Experiment number 2 ([3]; 20 mM): 0% | proportion (%) of explants regenerating after 3 weeks, Experiment number 3 ([3]; 20 mM): 0% | germination: proportion (%) of explants regenerating after 1 week, Average ([4]; 0.5 mM): 73% | germination: proportion (%) of explants regenerating after 1 week, Experiment number 1 ([4]; 0.5 mM): 65% | germination: proportion (%) of explants regenerating after 1 week, Experiment number 2 ([4]; 0.5 mM): 65% | germination: proportion (%) of explants regenerating after 1 week, Experiment number 3 ([4]; 0.5 mM): 90% | germination: proportion (%) of explants regenerating after 1 week, Average ([4]; 1 mM): 75% | germination: proportion (%) of explants regenerating after 1 week, Experiment number 1 ([4]; 1 mM): 75% | germination: proportion (%) of explants regenerating after 1 week, Experiment number 2 ([4]; 1 mM): 75% | germination: proportion (%) of explants regenerating after 1 week, Experiment number 3 ([4]; 1 mM): 75% | germination: proportion (%) of explants regenerating after 1 week, Average ([4]; 3 mM): 75% | germination: proportion (%) of explants regenerating after 1 week, Experiment number 1 ([4]; 3 mM): 80% | germination: proportion (%) of explants regenerating after 1 week, Experiment number 2 ([4]; 3 mM): 65% | germination: proportion (%) of explants regenerating after 1 week, Experiment number 3 ([4]; 3 mM): 80% | germination: proportion (%) of explants regenerating after 1 week, Average ([4]; 5 mM): 67% | germination: proportion (%) of explants regenerating after 1 week, Experiment number 1 ([4]; 5 mM): 70% | germination: proportion (%) of explants regenerating after 1 week, Experiment number 2 ([4]; 5 mM): 55% | germination: proportion (%) of explants regenerating after 1 week, Experiment number 3 ([4]; 5 mM): 75% | germination: proportion (%) of explants regenerating after 1 week, Average ([4]; 10 mM): 47% | germination: proportion (%) of explants regenerating after 1 week, Experiment number 1 ([4]; 10 mM): 65% | germination: proportion (%) of explants regenerating after 1 week, Experiment number 2 ([4]; 10 mM): 30% | germination: proportion (%) of explants regenerating after 1 week, Experiment number 3 ([4]; 10 mM): 45% | germination: proportion (%) of explants regenerating after 1 week, Average ([4]; 20 mM): 5% | germination: proportion (%) of explants regenerating after 1 week, Experiment number 1 ([4]; 20 mM): 5% | germination: proportion (%) of explants regenerating after 1 week, Experiment number 2 ([4]; 20 mM): 25% | germination: proportion (%) of explants regenerating after 1 week, Experiment number 3 ([4]; 20 mM): 40%
